We go through 14 compounds from patent US20240208992A1, “MACROCYCLES AS CFTR MODULATORS” (Idorsia Pharmaceuticals Ltd, priority 2021, published 2024).

The test concerns the target human F508del-CFTR (Homo sapiens, UniProt P13569, DEL508-508). As to the kind of experiment: F508del-CFTR cell surface expression (corrector activity), DiscoveRx ß-galactosidase complementation chemiluminescence assay in recombinant U2OS cell line.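 On all read-outs here: U2OS cells co-expressing ProLink-tagged F508del-CFTR and a membrane-anchored enzyme acceptor, where more surface CFTR restores β-galactosidase activity measured by chemiluminescence.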 The conditions noted are these: U2OS cells, 16h compound incubation; for EC50: EC50, F508del-CFTR cell surface expression, geomean of several measurements; for Emax: U2OS, in relation to the Emax of the corrector lumacaftor (=100%), arithmetic mean.

Chain of human F508del-CFTR (P13569 with tags, fused parts or gaps DEL508-508): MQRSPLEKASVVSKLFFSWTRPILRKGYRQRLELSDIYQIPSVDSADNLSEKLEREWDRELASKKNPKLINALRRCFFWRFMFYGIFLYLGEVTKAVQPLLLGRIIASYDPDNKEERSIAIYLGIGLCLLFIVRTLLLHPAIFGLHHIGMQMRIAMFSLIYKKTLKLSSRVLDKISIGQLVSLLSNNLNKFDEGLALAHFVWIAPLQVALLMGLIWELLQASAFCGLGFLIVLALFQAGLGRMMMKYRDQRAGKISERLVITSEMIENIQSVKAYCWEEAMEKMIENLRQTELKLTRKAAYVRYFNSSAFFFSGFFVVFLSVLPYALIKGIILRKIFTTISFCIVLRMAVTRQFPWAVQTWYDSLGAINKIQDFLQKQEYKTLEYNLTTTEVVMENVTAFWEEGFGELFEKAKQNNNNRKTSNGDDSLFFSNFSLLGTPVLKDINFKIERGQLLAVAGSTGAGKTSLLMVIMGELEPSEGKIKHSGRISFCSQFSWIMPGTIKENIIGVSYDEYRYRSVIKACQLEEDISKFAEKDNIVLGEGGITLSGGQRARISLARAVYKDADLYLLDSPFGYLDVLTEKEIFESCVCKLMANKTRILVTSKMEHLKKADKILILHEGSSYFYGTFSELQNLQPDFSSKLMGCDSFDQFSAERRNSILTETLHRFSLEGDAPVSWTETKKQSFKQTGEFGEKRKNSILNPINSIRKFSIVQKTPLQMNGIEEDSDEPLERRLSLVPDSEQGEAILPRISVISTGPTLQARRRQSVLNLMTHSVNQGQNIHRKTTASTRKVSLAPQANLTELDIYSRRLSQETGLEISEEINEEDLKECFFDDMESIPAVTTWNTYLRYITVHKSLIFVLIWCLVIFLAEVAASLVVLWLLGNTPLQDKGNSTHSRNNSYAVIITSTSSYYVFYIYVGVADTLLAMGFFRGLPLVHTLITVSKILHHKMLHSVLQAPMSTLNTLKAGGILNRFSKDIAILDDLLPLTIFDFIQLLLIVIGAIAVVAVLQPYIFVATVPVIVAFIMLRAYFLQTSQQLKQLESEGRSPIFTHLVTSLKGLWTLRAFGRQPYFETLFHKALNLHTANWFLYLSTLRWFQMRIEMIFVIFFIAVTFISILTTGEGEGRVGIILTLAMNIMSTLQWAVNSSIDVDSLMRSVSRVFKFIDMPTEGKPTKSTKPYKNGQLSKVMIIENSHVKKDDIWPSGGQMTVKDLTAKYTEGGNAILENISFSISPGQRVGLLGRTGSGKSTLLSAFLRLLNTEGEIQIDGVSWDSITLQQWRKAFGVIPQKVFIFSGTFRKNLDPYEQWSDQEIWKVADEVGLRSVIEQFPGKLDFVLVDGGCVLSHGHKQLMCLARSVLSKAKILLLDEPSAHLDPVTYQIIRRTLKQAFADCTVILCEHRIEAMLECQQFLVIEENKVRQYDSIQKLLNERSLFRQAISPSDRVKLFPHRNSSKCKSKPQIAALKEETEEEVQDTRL

By EC50 is commonly meant the midpoint of the concentration-response curve. One may read the Emax as the greatest response seen or fitted, relative to the assay's reference. Turning to `COc1cc2c(c(OC)n1)C(=O)N[C@H](C(=O)NCCc1cc(C3CC3)no1)CC(=O)N(C)[C@@H](CC(C)C)C(=O)N1CCCC[C@@H]1C(=O)N[C@H](Cc1ccccc1)CO2` [Example 870, (7S,11S,17aR,20R)-20-benzyl-N-(2-(3-cyclopropylisoxazol-5-yl)ethyl)-11-isobutyl-2,4-dimethoxy-10-methyl-5,9,12,18-tetraoxo-5,6,7,8,9,10,11,12,15,16,17,17a,18,19,20,21-hexadecahydro-14H-dipyrido[2,1-f:3′,4′-p][1]oxa[4,7,10,14]tetraazacycloheptadecine-7-carboxamide], the EC50 came to 201 nM and the Emax is 316%.
The like results for `COCCc1ccc(-c2noc(C[C@@H]3C(=O)N[C@H](Cc4ccccc4)COc4ccnc(OC)c4C(=O)N[C@H](C(=O)NCCn4ncc(C5CC5)n4)CC(=O)N(C)[C@@H](CC(C)C)C(=O)N3C)n2)cc1` [Example 871, (3R,6R,9S,13S)-3-benzyl-N-(2-(4-cyclopropyl-2H-1,2,3-triazol-2-yl)ethyl)-9-isobutyl-16-methoxy-6-((3-(4-(2-methoxyethyl)phenyl)-1,2,4-oxadiazol-5-yl)methyl)-7,10-dimethyl-5,8,11,15-tetraoxo-2,3,4,5,6,7,8,9,10,11,12,13,14,15-tetradecahydropyrido[3,4-p][1]oxa[4,7,10,14]tetraazacycloheptadecine-13-carboxamide] were, in that order, 32 nM and 378%.
In the case of `COc1noc(CCNC(=O)[C@@H]2CC(=O)N(C)[C@@H](CC(C)C)C(=O)N(C)C3(CC3)C(=O)N[C@H](Cc3ccccc3)COc3cnc4ccccc4c3C(=O)N2)n1` [Example 872, (3′S,7′S,13′R)-13′-benzyl-7′-isobutyl-N-(2-(3-methoxy-1,2,4-oxadiazol-5-yl)ethyl)-6′,9′-dimethyl-1′,5′,8′,11′-tetraoxo-2′,3′,4′,5′,6′,7′,8′,9′,11′,12′,13′,14′-dodecahydro-1′H-spiro[cyclopropane-1,10′-[1]oxa[4,7,10,14]tetraazacycloheptadecino[17,16-c]quinoline]-3′-carboxamide], the EC50 amounted to 535 nM and the Emax stood at 318%.
The like results for `COc1cccc(CCNC(=O)[C@@H]2CC(=O)N(C)[C@@H](CC(C)C)C(=O)N(C)[C@H](CC(C)(C)C)C(=O)N[C@H](Cc3ccccc3)COc3cc(C)nc(OC)c3C(=O)N2)c1` [Example 873, (3R,6R,9S,13S)-3-benzyl-9-isobutyl-16-methoxy-N-(3-methoxyphenethyl)-7,10,18-trimethyl-6-neopentyl-5,8,11,15-tetraoxo-2,3,4,5,6,7,8,9,10,11,12,13,14,15-tetradecahydropyrido[3,4-p][1]oxa[4,7,10,14]tetraazacycloheptadecine-13-carboxamide] were, in that order, 41 nM and 336%.
The like results for `COc1nc(C)cc2c1C(=O)N[C@H](C(=O)NCCc1cc(C)no1)CC(=O)N(C)[C@@H](CC(C)C)C(=O)N(C)[C@H](CCc1ccccc1)C(=O)N[C@H](Cc1ccccc1)CO2` [Example 874, (3R,6R,9S,13S)-3-benzyl-9-isobutyl-16-methoxy-7,10,18-trimethyl-N-(2-(3-methylisoxazol-5-yl)ethyl)-5,8,11,15-tetraoxo-6-phenethyl-2,3,4,5,6,7,8,9,10,11,12,13,14,15-tetradecahydropyrido[3,4-p][1]oxa[4,7,10,14]tetraazacycloheptadecine-13-carboxamide] were, in that order, 66 nM and 332%.
The like results for `COc1cccc(CCNC(=O)[C@@H]2CC(=O)N(C)[C@@H](CC(C)C)C(=O)N(C)[C@H](CCc3ccccc3)C(=O)N[C@H](Cc3ccccc3)COc3cc(C)nc(OC)c3C(=O)N2)c1` [Example 875, (3R,6R,9S,13S)-3-benzyl-9-isobutyl-16-methoxy-N-(3-methoxyphenethyl)-7,10,18-trimethyl-5,8,11,15-tetraoxo-6-phenethyl-2,3,4,5,6,7,8,9,10,11,12,13,14,15-tetradecahydropyrido[3,4-p][1]oxa[4,7,10,14]tetraazacycloheptadecine-13-carboxamide] were, in that order, 21 nM and 333%.
For `COc1nc(C)cc2c1C(=O)N[C@H](C(=O)NCCc1cc(C)no1)CC(=O)N(C)[C@@H](CC(C)C)C(=O)N(C)[C@H](CC(C)(C)C)C(=O)N[C@H](Cc1ccccc1)CO2` [Example 876, (3R,6R,9S,13S)-3-benzyl-9-isobutyl-16-methoxy-7,10,18-trimethyl-N-(2-(3-methylisoxazol-5-yl)ethyl)-6-neopentyl-5,8,11,15-tetraoxo-2,3,4,5,6,7,8,9,10,11,12,13,14,15-tetradecahydropyrido[3,4-p][1]oxa[4,7,10,14]tetraazacycloheptadecine-13-carboxamide], the half-maximal effective concentration (EC50) was 113 nM and the Emax came out at 317%.
As to `CCOCC[C@@H]1C(=O)N[C@H](Cc2ccccc2)COc2cc(C)nc(OC)c2C(=O)N[C@H](C(=O)NCCc2cc(OC)no2)CC(=O)N(C)[C@@H](CC(C)C)C(=O)N1C` [Example 877, (3R,6R,9S,13S)-3-benzyl-6-(2-ethoxyethyl)-9-isobutyl-16-methoxy-N-(2-(3-methoxyisoxazol-5-yl)ethyl)-7,10,18-trimethyl-5,8,11,15-tetraoxo-2,3,4,5,6,7,8,9,10,11,12,13,14,15-tetradecahydropyrido[3,4-p][1]oxa[4,7,10,14]tetraazacycloheptadecine-13-carboxamide], the EC50 was found to be 186 nM and the Emax came to 361%.
The matching figures for `COc1cc(CCNC(=O)[C@@H]2CC(=O)N(C)[C@@H](CC(C)C)C(=O)N(C)[C@H](CC(C)(C)C)C(=O)N[C@H](Cc3ccccc3)COc3cc(C)nc(OC)c3C(=O)N2)on1` [Example 878, (3R,6R,9S,13S)-3-benzyl-9-isobutyl-16-methoxy-N-(2-(3-methoxyisoxazol-5-yl)ethyl)-7,10,18-trimethyl-6-neopentyl-5,8,11,15-tetraoxo-2,3,4,5,6,7,8,9,10,11,12,13,14,15-tetradecahydropyrido[3,4-p][1]oxa[4,7,10,14]tetraazacycloheptadecine-13-carboxamide]: 27 nM and 336%.
The like results for `COc1cc(C[C@@H]2C(=O)N[C@H](Cc3ccccc3)COc3ccc4ncc(F)cc4c3C(=O)N[C@H](C(=O)NCCc3noc(C4CC4)n3)CC(=O)N(C)[C@@H](CC(C)C)C(=O)N2C)on1` [Example 879, (3S,7S,10R,13R)-13-benzyl-N-(2-(5-cyclopropyl-1,2,4-oxadiazol-3-yl)ethyl)-20-fluoro-7-isobutyl-10-((3-methoxyisoxazol-5-yl)methyl)-6,9-dimethyl-1,5,8,11-tetraoxo-1,2,3,4,5,6,7,8,9,10,11,12,13,14-tetradecahydro-[1]oxa[4,7,10,14]tetraazacycloheptadecino[16,17-f]quinoline-3-carboxamide] were, in that order, 63 nM and 360%.
Regarding `COc1cc(CCNC(=O)[C@@H]2CC(=O)N(C)[C@@H](CC(C)C)C(=O)N(C)[C@H](Cc3cc(OC)no3)C(=O)N[C@H](Cc3ccccc3)COc3ccc4ncc(F)cc4c3C(=O)N2)on1` [Example 880, (3S,7S,10R,13R)-13-benzyl-20-fluoro-7-isobutyl-N-(2-(3-methoxyisoxazol-5-yl)ethyl)-10-((3-methoxyisoxazol-5-yl)methyl)-6,9-dimethyl-1,5,8,11-tetraoxo-1,2,3,4,5,6,7,8,9,10,11,12,13,14-tetradecahydro-[1]oxa[4,7,10,14]tetraazacycloheptadecino[16,17-f]quinoline-3-carboxamide], the EC50 is 59 nM and the maximum response (Emax) was found to be 359%.
The like results for `COc1nccc2c1C(=O)N[C@H](C(=O)NCCc1noc(C3CC3)n1)CC(=O)N(C)[C@@H](CC(C)C)C(=O)N(C)[C@H](CCc1nc(C(C)(C)C)no1)C(=O)N[C@H](Cc1ccccc1)CO2` [Example 881, (3R,6R,9S,13S)-3-benzyl-6-(2-(3-(tert-butyl)-1,2,4-oxadiazol-5-yl)ethyl)-N-(2-(5-cyclopropyl-1,2,4-oxadiazol-3-yl)ethyl)-9-isobutyl-16-methoxy-7,10-dimethyl-5,8,11,15-tetraoxo-2,3,4,5,6,7,8,9,10,11,12,13,14,15-tetradecahydropyrido[3,4-p][1]oxa[4,7,10,14]tetraazacycloheptadecine-13-carboxamide] were, in that order, 309 nM and 337%.
With `COc1nccc2c1C(=O)N[C@H](C(=O)NCCc1noc(C3CC3)n1)CC(=O)N(C)[C@@H](CC(C)C)C(=O)N(C)[C@H](Cn1cc(-c3ccccc3)nn1)C(=O)N[C@H](Cc1ccccc1)CO2` [Example 882, (3R,6R,9S,13S)-3-benzyl-N-(2-(5-cyclopropyl-1,2,4-oxadiazol-3-yl)ethyl)-9-isobutyl-16-methoxy-7,10-dimethyl-5,8,11,15-tetraoxo-6-((4-phenyl-1H-1,2,3-triazol-1-yl)methyl)-2,3,4,5,6,7,8,9,10,11,12,13,14,15-tetradecahydropyrido[3,4-p][1]oxa[4,7,10,14]tetraazacycloheptadecine-13-carboxamide], the EC50 stood at 473 nM and the Emax is 367%.
`COc1nccc2c1C(=O)N[C@H](C(=O)NCCc1noc(C3CC3)n1)CC(=O)N(C)[C@@H](CC(C)C)C(=O)N(C)[C@H](CCc1nc(C3CCCC3)no1)C(=O)N[C@H](Cc1ccccc1)CO2` [Example 883, (3R,6R,9S,13S)-3-benzyl-6-(2-(3-cyclopentyl-1,2,4-oxadiazol-5-yl)ethyl)-N-(2-(5-cyclopropyl-1,2,4-oxadiazol-3-yl)ethyl)-9-isobutyl-16-methoxy-7,10-dimethyl-5,8,11,15-tetraoxo-2,3,4,5,6,7,8,9,10,11,12,13,14,15-tetradecahydropyrido[3,4-p][1]oxa[4,7,10,14]tetraazacycloheptadecine-13-carboxamide]: the EC50 came out at 111 nM and the maximal effect (Emax) turned out to be 344%.
